One data set has as its system CYP3A. As to conditions: cited from earlier work.
A further data set relates to CD5 CAR T-cells. Put plainly: Expansion of CD5 CAR T-cells in the presence of kinase inhibitors. In kind it is cell-based, human. As to conditions: for frequencies of minimally differentiated, naïve-like T-cells (differentiation of CD5 CAR T-cells): inhibitor added on day of viral transduction, replenished every 2-3 days, vs control CD5 CAR T-cells expanded in the absence of inhibitors, FIG. 1A. The source says:
Pazopanib and gefitinib had less impact on the differentiation of CD5 CAR T-cells. […] No such effect was observed upon expansion of control non-transduced T-cells in the presence of the same inhibitors, indicating the effect is CAR-specific.

The values below come from patent US20240382521A1, “METHODS OF ENGINEERING IMMUNE CELLS HAVING REDUCED FRATRICIDAL ACTIVITY” (Baylor College of Medicine, priority 2021, published 2024).

As to `Cc1nc(Nc2ncc(C(=O)Nc3c(C)cccc3Cl)s2)cc(N2CCN(CCO)CC2)n1` [dasatinib], in the data set on CYP3A, the “metabolism in the liver by the CYP3A” value was “extensive metabolism”.
Take `COc1cc2ncnc(Nc3ccc(F)c(Cl)c3)c2cc1OCCCN1CCOCC1` [gefitinib]: in the data set on CD5 CAR T-cells, the “frequencies of minimally differentiated, naïve-like T-cells (differentiation of CD5 CAR T-cells)” value was “less impact”.
`CC(C)(C)n1nc(-c2ccc(Cl)cc2)c2c(N)ncnc21` [pp2]: in the data set on CD5 CAR T-cells (in presence of inhibitor, compared with non-transduced control T-cells, FIG. 1B), the “CD5 CAR T-cell expansion” value was “promoted robust CD5 CAR T-cell expansion”. In the data set with CD5 CAR T-cells, the “frequencies of minimally differentiated, naïve-like T-cells (differentiation of CD5 CAR T-cells)” value is reported as “higher frequencies”.
